# How the values were obtained:
# Type in all cases: cell-based
# [1] = tested on: LPS induced peripheral blood mononuclear cells (PBMCs); assay: IL-2 gene expression relative to GAPDH in LPS induced PBMCs incubated with sesamin (RT-PCR), Example Seven; conditions: culture 4, 1.0 ug/ml of sesamin; greatest increase
# Description: (§1) Experiments were conducted to evaluate the effect of particular phytochemical compositions provided by the present disclosure on IL-2 gene expression in specified cells found within a body of a living organism. Cells used for the experiment described in this example are LPS induced peripheral blood mononuclear cells (PBMCs). It is understood by a person having ordinary skill in the art that the PBMCs may be substituted for other immune cells found within the body. It is also understood by a person having ordinary skill in the art that other inducing substances or chemicals besides LPS, for example viral antigens, may also be used for inducing the PBMCs.
# To conduct the experiments of example seven, PBMCs were isolated and prepared using methods or techniques known to a person having ordinary skill in the art. An exemplary method or techniques is the differential density gradient centrifugation technique, the steps or process steps of which is known to a person of ordinary skill in the art. In addition, LPS can be obtained from a commercial source, for example Sigma-Aldrich Co. […]
# The amount or level of IL-2 gene expression in the PBMCs was measured or determined using methods or techniques known to a person having ordinary skill in the relevant art. In example three, Real-Time PCR (RT-PCR) was used for quantifying the amount of IL-2 gene expression in the PBMCs.
# [2] = tested on: LPS induced peripheral blood mononuclear cells (PBMCs); assay: IL-1 released by LPS induced PBMCs incubated with sesamin (ELISA), Example Six
# Description: as §1, with “quantity of IL-1 released by” for “IL-2 gene expression in”
# To conduct the experiments of example six, PBMCs were isolated and prepared using methods or techniques known to a person having ordinary skill in the art. An exemplary method or techniques is the differential density gradient centrifugation technique, the steps or process steps of which is known to a person of ordinary skill in the art. In addition, LPS can be obtained from a commercial source, for example Sigma-Aldrich Co.
# The PBMCs are cultured in 10% fetal calf serum in RPMI1640 medium. Seven cultures of PBMCs, i.e. culture 1 to culture 7, were prepared. The contents of each of cultures 1 to 7 were as follows:
# (i) Culture 1: First control culture. Includes a predetermined volume of PBMCs (1×10^5 PBMCs/culture);
# (ii) Culture 2: Second control culture. Includes the predetermined volume of PBMCs (1×10^5 PBMCs/culture) and LPS at a concentration of 20 ng/ml;
# (iii) Culture 3: Includes the predetermined volume of the specified concentration of PBMCs, LPS at a concentration of 20 ng/ml, and a volume of phytochemical composition providing 0.1 uM of sesamin; […]
# After a predetermined time period, quantity of IL-1 in each of cultures 1 to 7 was quantified using the ELISA technique (e.g., Biotrak Easy ELISA Aersham). The quantity of IL-1 detected by the ELISA technique in each of cultures 1 to 7 reflects the quantity of IL-1 released by the PBMCs of that culture.
# [3] = tested on: lipopolysaccharide (LPS) induced synovial fibroblast (SF) cells; assay: IL-1 gene expression relative to GAPDH in LPS induced synovial fibroblast cells incubated with sesamin (RT-PCR), Example Five
# Description: Experiments were conducted to evaluate the effect of particular phytochemical compositions provided by the present disclosure on IL-1 gene expression in specified cells found within a body of a living organism. The cells used for the experiment described in […] are lipopolysaccharide (LPS) induced synovial fibroblast (SF) cells. The SF cells were isolated from synovium tissue (also referred to as synovial tissue) using a standard cell isolation technique or method that is known to a person of ordinary skill in the art. In addition, LPS is obtained from a commercial source, for example Sigma-Aldrich Co. It is understood by a person having ordinary skill in the art that the SF cells may be substituted with other immune cells found within the body, for example lymphocytes, monocytes, and macrophages. […]
# The amount or level of IL-1 gene expression in the SF cells was measured or determined using methods or techniques known to a person having ordinary skill in the relevant art. In example five, Real-Time PCR (RT-PCR) was used for quantifying the amount of IL-1 gene expression in the SF cells. IL-1beta or IL-1β specific primers were used during RT-PCR, thereby facilitating or effectuating the quantification of IL-1β gene expression in the SF cells. […]
compound,measurement,setting,value
c1cc2c(cc1[C@H]1OC[C@H]3[C@@H]1CO[C@@H]3c1ccc3c(c1)OCO3)OCO2 [sesamin],increase in IL-2 gene expression relative GAPDH,[1],approximately 220%
same,decrease in quantity of IL-1,"[2]; culture 3, 0.1 uM sesamin, vs control culture 1, minimum decrease",approximately 5%
same,decrease in quantity of IL-1,"[2]; culture 4, 0.5 uM sesamin, vs control culture 1, minimum decrease",approximately 5%
same,decrease in quantity of IL-1,"[2]; culture 7, 10 uM sesamin, vs control culture 2, maximum decrease",approximately 35%
same,IL-1 gene expression relative to GAPDH decreased,"[3]; culture 4, 0.025 mM sesamin, vs control culture 3, minimal decrease",approximately 20%
same,IL-1 gene expression relative to GAPDH decreased,"[3]; culture 9, 1.0 mM sesamin, vs control culture 2, maximal decrease",approximately 65%
